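Values below derive from 48-hour exposures of cells grown in 96-well plates, with endpoints linearly interpolated between the two concentrations bracketing the appropriate inhibition level. The concentration for full growth arrest is given as TGI.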 Where only a bound is given, the exact number is not on record here.

The subject of one assay is SF-539 CNS. Put plainly: NCI anticancer screen, dose series, 48 h.
Compound `C[C@@]12CCC3C1C=C1C(=O)c4cc(O)ccc4C(=O)[C@]1(O2)[C@@]3(C)C=O` yielded a TGI of 12.3 µM.

On to `CC1(C)OC(=C(C#N)C#N)C(C#N)=C1/C=C/c1ccncc1`, for which the TGI was found to be 3.49 µM.

The subject of another assay is SK-MEL-5 melanoma. Put plainly: NCI anticancer screen, dose series, 48 h.
`CSc1ncnc2c1cnn2CCCCO`: the TGI was > 100 µM.

For `COc1ccc(OC)c(C2Cc3cnc4nc(N)nc(N)c4c3C2)c1` (stereo unspecified), the TGI is > 100 µM.

Take `COc1cc2c3c(c4cc(OC)c(OC)cc4c2cc1OC)C(=O)C1CCC(=O)N1C3` (stereo unspecified): the TGI was > 100 µM.

In the case of `CC(=O)Nc1ccc2cc(C)c(=O)[nH]c2n1`, the TGI was > 100 µM.

Turning to `CCOC(=O)c1ccc(C(=O)/C(C#N)=C2\CCCN2C)[nH]1`, the TGI was > 100 µM.

As for `Oc1ccc(-c2nc(-c3ccc(F)cc3)c(-c3ccc4ccccc4n3)[nH]2)cc1`, the TGI stood at 17.7 µM.

The compound `C[C@@]12CCC3C1C=C1C(=O)c4cc(O)ccc4C(=O)[C@]1(O2)[C@@]3(C)C=O` registered a TGI of 16.1 µM.

Turning to `CC(C)C[C@H]1[C@@H](OCc2ccccc2)COS(=O)N1[C@H](C)c1ccccc1` (stereo partly specified), the TGI is 23.3 µM.

Consider `CC1(C)OC2C(O)CN3CCS[C@H]3C2O1` (stereo partly specified), for which the TGI was > 100 µM.

In the case of `CC1(C)OC(=C(C#N)C#N)C(C#N)=C1/C=C/c1ccncc1`, the TGI turned out to be 14.4 µM.

With `O=S(=O)(O)c1ccc(N=Nc2ccc(N=Nc3c(O)ccc4ccccc34)cc2)cc1`, the TGI was > 100 µM.

The test system of the next assay is SK-OV-3 ovarian. Put plainly: NCI anticancer screen, dose series, 48 h.
`CSc1ncnc2c1cnn2CCCCO`: the TGI was > 100 µM.

Turning to `COc1ccc(OC)c(C2Cc3cnc4nc(N)nc(N)c4c3C2)c1` (stereo unspecified), the TGI is > 100 µM.

Compound `COc1cc2c3c(c4cc(OC)c(OC)cc4c2cc1OC)C(=O)C1CCC(=O)N1C3` (stereo unspecified) yielded a TGI of 61.1 µM.

In the case of `CC(=O)Nc1ccc2cc(C)c(=O)[nH]c2n1`, the TGI was > 100 µM.

As for `CN1CCN(CN2C(=O)C3C4C=CC(C3C2=O)C2C(=O)N(CN3CCN(C)CC3)C(=O)C42)CC1` (stereo unspecified), the TGI was > 100 µM.

`Oc1ccc(-c2nc(-c3ccc(F)cc3)c(-c3ccc4ccccc4n3)[nH]2)cc1` had a TGI of 30.7 µM.

With `C[C@@]12CCC3C1C=C1C(=O)c4cc(O)ccc4C(=O)[C@]1(O2)[C@@]3(C)C=O`, the TGI stood at 21.5 µM.

Consider `CC(C)C[C@H]1[C@@H](OCc2ccccc2)COS(=O)N1[C@H](C)c1ccccc1` (stereo partly specified), for which the TGI came to 78 µM.

`CC1(C)OC2C(O)CN3CCS[C@H]3C2O1` (stereo partly specified): the TGI was > 100 µM.

Compound `CC1(C)OC(=C(C#N)C#N)C(C#N)=C1/C=C/c1ccncc1` yielded a TGI of 16.8 µM.

Consider `O=S(=O)(O)c1ccc(N=Nc2ccc(N=Nc3c(O)ccc4ccccc34)cc2)cc1`, for which the TGI is > 100 µM.

The test system of the next assay is SN12C renal. Put plainly: NCI anticancer screen, dose series, 48 h.
Consider `CSc1ncnc2c1cnn2CCCCO`, for which the TGI is > 100 µM.

The compound `COc1ccc(OC)c(C2Cc3cnc4nc(N)nc(N)c4c3C2)c1` (stereo unspecified) gave a TGI of 56.8 µM.

As for `CC(=O)Nc1ccc2cc(C)c(=O)[nH]c2n1`, the TGI was > 100 µM.

In the case of `CCOC(=O)c1ccc(C(=O)/C(C#N)=C2\CCCN2C)[nH]1`, the TGI is > 100 µM.

Take `CN1CCN(CN2C(=O)C3C4C=CC(C3C2=O)C2C(=O)N(CN3CCN(C)CC3)C(=O)C42)CC1` (stereo unspecified): the TGI is > 100 µM.

The compound `Oc1ccc(-c2nc(-c3ccc(F)cc3)c(-c3ccc4ccccc4n3)[nH]2)cc1` came in with a TGI of 32.1 µM.

Compound `C[C@@]12CCC3C1C=C1C(=O)c4cc(O)ccc4C(=O)[C@]1(O2)[C@@]3(C)C=O` registered a TGI of 8.85 µM.

For `CC(C)C[C@H]1[C@@H](OCc2ccccc2)COS(=O)N1[C@H](C)c1ccccc1` (stereo partly specified), the TGI came to 40.1 µM.

On to `CC1(C)OC(=C(C#N)C#N)C(C#N)=C1/C=C/c1ccncc1`, for which the TGI worked out at 5.75 µM.

As to `O=S(=O)(O)c1ccc(N=Nc2ccc(N=Nc3c(O)ccc4ccccc34)cc2)cc1`, the TGI was > 100 µM.

In the next assay the test system is SNB-75 CNS. Put plainly: NCI anticancer screen, dose series, 48 h.
On to `COc1ccc(OC)c(C2Cc3cnc4nc(N)nc(N)c4c3C2)c1` (stereo unspecified), for which the TGI is 47.5 µM.

Consider `COc1cc2c3c(c4cc(OC)c(OC)cc4c2cc1OC)C(=O)C1CCC(=O)N1C3` (stereo unspecified), for which the TGI was 32.2 µM.

For the compound `CC(=O)Nc1ccc2cc(C)c(=O)[nH]c2n1`, the TGI is > 100 µM.

Take `CCOC(=O)c1ccc(C(=O)/C(C#N)=C2\CCCN2C)[nH]1`: the TGI is > 100 µM.

With `CN1CCN(CN2C(=O)C3C4C=CC(C3C2=O)C2C(=O)N(CN3CCN(C)CC3)C(=O)C42)CC1` (stereo unspecified), the TGI was > 100 µM.

Compound `Oc1ccc(-c2nc(-c3ccc(F)cc3)c(-c3ccc4ccccc4n3)[nH]2)cc1` registered a TGI of 41.6 µM.

`CC(C)C[C@H]1[C@@H](OCc2ccccc2)COS(=O)N1[C@H](C)c1ccccc1` (stereo partly specified): the TGI was > 100 µM.

On to `CC1(C)OC2C(O)CN3CCS[C@H]3C2O1` (stereo partly specified), for which the TGI is > 100 µM.

Compound `CC1(C)OC(=C(C#N)C#N)C(C#N)=C1/C=C/c1ccncc1` yielded a TGI of 8.68 µM.

`O=S(=O)(O)c1ccc(N=Nc2ccc(N=Nc3c(O)ccc4ccccc34)cc2)cc1`: the TGI is > 100 µM.

In the next assay the test system is T-47D breast. Briefly: NCI anticancer screen, dose series, 48 h.
For the compound `CSc1ncnc2c1cnn2CCCCO`, the TGI was > 100 µM.

Take `COc1ccc(OC)c(C2Cc3cnc4nc(N)nc(N)c4c3C2)c1` (stereo unspecified): the TGI turned out to be 65.5 µM.

Take `COc1cc2c3c(c4cc(OC)c(OC)cc4c2cc1OC)C(=O)C1CCC(=O)N1C3` (stereo unspecified): the TGI was > 100 µM.

As for `CC(=O)Nc1ccc2cc(C)c(=O)[nH]c2n1`, the TGI is > 100 µM.

`CCOC(=O)c1ccc(C(=O)/C(C#N)=C2\CCCN2C)[nH]1`: the TGI is > 100 µM.

Regarding `CN1CCN(CN2C(=O)C3C4C=CC(C3C2=O)C2C(=O)N(CN3CCN(C)CC3)C(=O)C42)CC1` (stereo unspecified), the TGI is > 100 µM.

As to `Oc1ccc(-c2nc(-c3ccc(F)cc3)c(-c3ccc4ccccc4n3)[nH]2)cc1`, the TGI stood at 25.1 µM.

Compound `C[C@@]12CCC3C1C=C1C(=O)c4cc(O)ccc4C(=O)[C@]1(O2)[C@@]3(C)C=O` displayed a TGI of 14 µM.

For `CC(C)C[C@H]1[C@@H](OCc2ccccc2)COS(=O)N1[C@H](C)c1ccccc1` (stereo partly specified), the TGI is > 100 µM.

On to `CC1(C)OC2C(O)CN3CCS[C@H]3C2O1` (stereo partly specified), for which the TGI was > 100 µM.

With `CC1(C)OC(=C(C#N)C#N)C(C#N)=C1/C=C/c1ccncc1`, the TGI stood at 6.26 µM.

Turning to `O=S(=O)(O)c1ccc(N=Nc2ccc(N=Nc3c(O)ccc4ccccc34)cc2)cc1`, the TGI was > 100 µM.

These data come from PubChem BioAssay (NCI).
